Reference: US20090326037A1 (priority 2005, published 2009)
“And” between values parts separate entries of the source, which are not always exact repeats. Identical values can stand only once. Counter-ions that a name gives are not always drawn. Like-named read-outs stand apart in the source and are kept apart here.

Legend:
[1] = test system: influenza A/Singapore/1/57 virus; assay: microbe, parasite or virus in culture; type: cell-based; settings: for Percent of inhibition of OD 490: added 30 min prior to infection
[2] = test system: avian influenza virus (H5N1); type: in vivo, white mice; settings: orally
[3] = Toxicity (lethal effect, LD50) in mice; type: in vivo; settings: endogastrically, observation 14 days
Procedure: (§1) Determination of toxicity of 1-methyl-2-phenylthiomethyl-3-carbethoxy-5-oxy-6-bromindol sulfon as compared with arbidol.
(§2) The administration of the preparations was carried out endogastrically, the period of observation of the animals was 14 days.

[4] = Toxicity (lethal effect, LD50) in rats; type: in vivo; settings: endogastrically, observation 14 days
Procedure: as §1, §2

[5] = test system: influenza virus A/PR/8/34; type: cell-based; settings: influenza virus A/PR/8/34, MDCK cells; concentration not given
[6] = test system: influenza virus H3N2; type: in vivo, mice
[7] = Influenza A virus, MDCK, read-out: percent of inhibition of viral reproduction

## CCOC(=O)c1c(CSc2ccccc2)n(C)c2cc(Br)c(O)c(CN(C)C)c12 [Arbidol, 1-methyl-2-phenylthiomethyl-3-carbethoxy-4-dimethylaminomethyl-5-oxy-6-bromindol hydrochloride]
[1]; A or D 5 μg/ml + Amantadin 0.3 μg/ml
  Percent of inhibition of OD 490: 60%
[1]; A or D 5 μg/ml + Amantadin 1 μg/ml
  Percent of inhibition of OD 490: 68%
[1]; A or D 5 μg/ml + Amantadin 5 μg/ml
  Percent of inhibition of OD 490: 74%
[1]; A or D 5 μg/ml + Amantadin 10 μg/ml
  Percent of inhibition of OD 490: 81%
[1]; A or D 5 μg/ml + Remantadin 0.3 μg/ml
  Percent of inhibition of OD 490: 63%
[1]; A or D 5 μg/ml + Remantadin 1 μg/ml
  Percent of inhibition of OD 490: 71%
[1]; A or D 5 μg/ml + Remantadin 5 μg/ml
  Percent of inhibition of OD 490: 74%
[1]; A or D 5 μg/ml + Remantadin 10 μg/ml
  Percent of inhibition of OD 490: 82%
[1]; A or D 5 μg/ml alone (Amantadin 0)
  Percent of inhibition of OD 490: 38%
[1]; A or D 5 μg/ml alone (Remantadin 0)
  Percent of inhibition of OD 490: 38%
[1]; A or D 10 μg/ml + Amantadin 0.3 μg/ml
  Percent of inhibition of OD 490: 77%
[1]; A or D 10 μg/ml + Amantadin 1 μg/ml
  Percent of inhibition of OD 490: 81%
[1]; A or D 10 μg/ml + Amantadin 5 μg/ml
  Percent of inhibition of OD 490: 82%
[1]; A or D 10 μg/ml + Amantadin 10 μg/ml
  Percent of inhibition of OD 490: 85%
[1]; A or D 10 μg/ml + Remantadin 0.3 μg/ml
  Percent of inhibition of OD 490: 78%
[1]; A or D 10 μg/ml + Remantadin 1 μg/ml
  Percent of inhibition of OD 490: 80%
[1]; A or D 10 μg/ml + Remantadin 5 μg/ml
  Percent of inhibition of OD 490: 82%
[1]; A or D 10 μg/ml + Remantadin 10 μg/ml
  Percent of inhibition of OD 490: 86%
[1]; A or D 10 μg/ml alone (Amantadin 0)
  Percent of inhibition of OD 490: 67%
[1]; A or D 10 μg/ml alone (Remantadin 0)
  Percent of inhibition of OD 490: 67%
[1]; Arbidol 3 μg/ml + Ribavirin 1 μg/ml
  percent of inhibition of viral reproduction: 19%
[1]; Arbidol 3 μg/ml + Ribavirin 3 μg/ml
  percent of inhibition of viral reproduction: 30%
[1]; Arbidol 3 μg/ml + Ribavirin 10 μg/ml
  percent of inhibition of viral reproduction: 52%
[1]; Arbidol 3 μg/ml + Ribavirin 15 μg/ml
  percent of inhibition of viral reproduction: 54%
[1]; Arbidol 10 μg/ml + Ribavirin 1 μg/ml
  percent of inhibition of viral reproduction: 26%
[1]; Arbidol 10 μg/ml + Ribavirin 3 μg/ml
  percent of inhibition of viral reproduction: 35%
[1]; Arbidol 10 μg/ml + Ribavirin 10 μg/ml
  percent of inhibition of viral reproduction: 85%
[1]; Arbidol 10 μg/ml + Ribavirin 15 μg/ml
  percent of inhibition of viral reproduction: 82%
[1]; Arbidol 15 μg/ml + Ribavirin 1 μg/ml
  percent of inhibition of viral reproduction: 43%
[1]; Arbidol 15 μg/ml + Ribavirin 3 μg/ml
  percent of inhibition of viral reproduction: 41%
[1]; Arbidol 15 μg/ml + Ribavirin 10 μg/ml
  percent of inhibition of viral reproduction: 82%
[1]; Arbidol 15 μg/ml + Ribavirin 15 μg/ml
  percent of inhibition of viral reproduction: 80%
[1]; Arbidol 20 μg/ml + Ribavirin 1 μg/ml
  percent of inhibition of viral reproduction: 65%
[1]; Arbidol 20 μg/ml + Ribavirin 3 μg/ml
  percent of inhibition of viral reproduction: 68%
[1]; Arbidol 20 μg/ml + Ribavirin 10 μg/ml
  percent of inhibition of viral reproduction: 80%
[1]; Arbidol 20 μg/ml + Ribavirin 15 μg/ml
  percent of inhibition of viral reproduction: 82%
[1]; [7]
  inhibition at 3 µg/mL: < 0%
  inhibition at 10 µg/mL: 23%
  inhibition at 15 µg/mL: 40%
  inhibition at 20 µg/mL: 55%
[1]; combination of 3 μg/ml of arbidol and 3.3 mg of zanamivir (oseltamivir), 2 hours after infection
  inhibition of the virus: 90%
[2]; Arbidol 30 mg/kg + Oseltamivir 0.25 mg/kg
  Surviving mice, %: 70%
[2]; Arbidol 30 mg/kg + Oseltamivir 1.0 mg/kg
  Surviving mice, %: 85%
[2]; Arbidol 30 mg/kg + Oseltamivir 2.5 mg/kg
  Surviving mice, %: 100%
[2]; Arbidol 30 mg/kg alone (Oseltamivir 0 mg/kg)
  Surviving mice, %: 65%
[3]; Dose 100 mg/kg
  Lethal effect upon administration to mice: 0/6
[3]; Dose 250 mg/kg
  Lethal effect upon administration to mice: 0/6
[3]; Dose 500 mg/kg
  Lethal effect upon administration to mice: 1/6
[3]; Dose 1000 mg/kg
  Lethal effect upon administration to mice: 3/6
[3]; Dose 3000 mg/kg
  Lethal effect upon administration to mice: 6/6
[3]; mouse, in vivo, oral, mice
  LD50 at 14 days: 860 ± 50 mg/kg
[4]; Dose 100 mg/kg
  Lethal effect upon administration to rats: 0/6
[4]; Dose 250 mg/kg
  Lethal effect upon administration to rats: 0/6
[4]; Dose 500 mg/kg
  Lethal effect upon administration to rats: 1/6
[4]; Dose 1000 mg/kg
  Lethal effect upon administration to rats: 3/6
[4]; Dose 3000 mg/kg
  Lethal effect upon administration to rats: 6/6
[4]; rat, in vivo, oral, rats
  LD50 at 14 days: 1720 ± 70 mg/kg
[5]
  Percent of suppression of virus reproduction: 60%
[6]; Concentration 15
  Percent of surviving mice: 80%
[6]; Concentration 30, hydrochloride
  Percent of surviving mice: 80% and 60% and 70%
